Where two headings read alike, the source gives them in different places.
What was measured:
[1] = tested on: PTH1R-R485X; conditions: for co-clustering of β-arrestin2YFP with ligand in endosomes, in words: 30 nM TMR ligand (unlabeled: 10 nM)
Protocol: (§1) Images are representative of three independent experiments.
Data are representative of three independent experiments (a-d); or means ± SEM of three or four independent experiments (e, f). Bar heights in graphs of panels b and d indicate the means ± SEM of counts from the five cells shown by the individual data points. Scale bars in a and c indicate 10 μm.
Ligand-induced recruitment of β-arrestin2^YFP was assessed in GBR-24 cells, which are HEK293/glosensor (Gs22A)-derived cells stably expressing β-arrestin2^YFP [42]. The cells in six-well plates were transiently transfected with plasmid DNA encoding PTH1R-WT or mutant derivative, and 24 hours later seeded onto glass coverslips in 6-well plates. […] In some experiments, the cells were imaged by confocal microscopy using a Leica DMi8 inverted Microscope at ×400 magnification, and the images were processed using Leica Application Suite X (LAS X) software. Regions of interest were digitally expanded 3-5X to improve views.
Quantification of β-arrestin2^YFP clusters was performed using ImageJ software (vers. 1.53)[67]. The color images were converted to 8 bit and then 16 bit gray-scale, and the threshold was adjusted on a cell-by-cell basis to show distinct particles (interpreted as clusters of β-arrestin2^YFP in intracellular vesicles); threshold values ranged from ~ 20-60. The free-hand tool was used to define the area analyzed for each cell, and the Analyze Particle tool was used to obtain the number of particles, the total area, and the mean gray scale (intensity) of each particle for each cell.

[2] = target: T1, PTH1R-E35K (Homo sapiens, UniProt Q03431, E35K); assay: Fluorescence microscopy of ligand internalization and β-arrestin2YFP recruitment, GBR-24 cells, ImageJ; type: cell-based; conditions: for co-clustering of β-arrestin2YFP with ligand in endosomes, in words: 30 nM TMR ligand (unlabeled: 10 nM)
Description: as §1
(§2) Scale bars in a and c indicate 10 μm.

[3] = target: T2, PTH1R-WT (Homo sapiens, UniProt Q03431); assay: as above; type: cell-based; conditions: 30 min; for co-clustering of β-arrestin2YFP with ligand in endosomes, in words: 30 nM TMR ligand (unlabeled: 10 nM)
Description: as §1, §2

[4] = target: T3, PTH1R-Y134S (Homo sapiens, UniProt Q03431, Y134S); assay: as above; type: cell-based; conditions: for co-clustering of β-arrestin2YFP with ligand in endosomes, in words: 30 nM TMR ligand (unlabeled: 10 nM)
Description: as §1, §2

[5] = target: T4, PTH1R-H223R (Homo sapiens, UniProt Q03431, H223R); assay: as above; type: cell-based; conditions: 10 nM, 30 min
Description: as §1

[6] = target: T1, PTH1R-E35K; assay: cAMP time course with ligand and after ligand washout (duration), Gs22a cells; type: cell-based; conditions: 10 nM, 30 min pretreatment
Protocol: (§8) Data are means (±SEM) of five (a), four (b, c, e) or three (d) separate experiments.
(§9) Fig. 7 Effects of Eiken mutation on duration of cAMP signaling and desensitization to ligand re-challenge. a Assays were performed in Gs22a cells transiently transfected to express PTH1R-WT or a mutant PTH1R. a Duration of initial cAMP signaling response. […] Response to Ligand rechallenge. After the washout-periods shown in panel a, the cells were rechallenged with the same ligand (1.0 nM) for 60 min and cAMP accumulation was assessed. […] P values indicate comparison by Student’s t test to pre-vehicle treatment: Data are means ± SEM from four separate experiments each in duplicate (b) or quadruplicate (a).
(§10) Basal and ligand-stimulated cAMP signaling was assessed via the glosensor cAMP reporter in Gs22a cells transiently transfected to express either the WT or a mutant hPTH1R in white 96-well plates at room temperature. […] The plate was then placed into a PerkinElmer Envision plate reader and luminescence, as counts per second (cps), was measured at 2-min intervals for 15 min, during which time luciferin uptake occurred and luminescence reached a near steady-state baseline level. The plate was then removed from the plate reader, CIDB alone (vehicle) or containing a test ligand at varying concentrations was added, and luminescence was again measured at 2 min intervals for an additional 30–60 min. […]

[7] = target: T3, PTH1R-Y134S; assay: as above; type: cell-based; conditions: 10 nM, 30 min pretreatment
Protocol: as §8, §9, §10

[8] = target: T1, PTH1R-E35K; assay: BRET β-arrestin2 recruitment to plasma membrane (rGFP-CAAX), HEK293; type: cell-based
Description: as §1, §2

[9] = target: T1, PTH1R-E35K; assay: BRET β-arrestin2 recruitment to early endosomes (rGFP-FYVE), HEK293; type: cell-based
Description: as §1, §2

[10] = target: T2, PTH1R-WT; assay: Glosensor cAMP agonist dose-response, Gs22a cells; type: cell-based; conditions: % of maximum response of each ligand on PTH1R-WT; five experiments
[11] = target: T5, PTH1R-R485X (Homo sapiens, UniProt Q03431); assay: cell-based
[12] = target: T1, PTH1R-E35K; assay: Glosensor cAMP agonist dose-response, Gs22a cells; type: cell-based; conditions: % of maximum response of each ligand on PTH1R-WT; five experiments
[13] = target: T3, PTH1R-Y134S; assay: Glosensor cAMP agonist dose-response, Gs22a cells; type: cell-based; conditions: % of maximum response of each ligand on PTH1R-WT; five experiments
[14] = target: T4, PTH1R-H223R; assay: Glosensor cAMP agonist dose-response, Gs22a cells; type: cell-based; conditions: % of maximum response of each ligand on PTH1R-WT; five experiments
[15] = target: T1, PTH1R-E35K; assay: Competition binding vs 125I-LA-PTH*, intact Gs22a cells; conditions: four experiments
Description: (§3) Supplemental Table 4. Competition Binding Data.
(§4) Ligand-binding properties of PTH1R variants
(§5) Suppl ement al Tabl e 4. Radi ol i gand Bi n d i n g Dat a. […]
(§6) as compet i t or. […] The fit values of […]
(§7) Dat a ar e means (±SEM) of f our exper i ment s; p val ues ar e St udent ’s T t est compar i sons t o

[16] = target: T4, PTH1R-H223R; assay: as above; conditions: % of maximum SB at PTHR1-WT; four experiments
Description: as §3, §4, §5, §6, §7

[17] = target: T2, PTH1R-WT; assay: as above; conditions: % of maximum SB at PTHR1-WT; four experiments
Description: as §3, §4, §5, §6, §7

[18] = target: T3, PTH1R-Y134S; assay: as above; conditions: % of maximum SB at PTHR1-WT; four experiments
Description: as §3, §4, §5, §6, §7

[19] = target: T5, PTH1R-R485X; type: binding; conditions: % of maximum SB at PTHR1-WT; four experiments
Protocol: Bar heights indicate the means ± SEM of three individual experiments represented by the data points. […] Data are means (±SEM) of three (a) or four experiments.
(§11) Binding was assessed on confluent monolayers of transiently transfected intact Gs22a cells in 96-well plates. Binding reactions contained HB and 20,000–30,000 cpm/well of radioligand. […] The mixtures were then removed and the cells were rinsed twice with HB and lysed with 5 N NaOH and the lysates were counted for gamma irradiation in a gamma counter. […] After incubation for 2 h at 4 °C, the mixtures were removed, the cells were rinsed twice with HB, lysed with 5N NaOH, and the lysates were counted for gamma irradiation.
The fit values of max i mum SB, as r adi oac t i v e c ount s per mi nut e (cpm), with non-specif ic binding (1, 529±418

[20] = target: T2, PTH1R-WT; assay: cAMP time course with ligand and after ligand washout (duration), Gs22a cells; type: cell-based; conditions: 1 nM, 90 min washout; all PTH1R variants
Protocol: as §8, §9, §10

[21] = tested on: PTH1R-R485X; conditions: 1 nM; vs vehicle-pre-treated cells
Protocol: as §9
The cells were then rinsed twice with CIDB and incubated in CIDB for 90 min (washout phase); then rinsed again and incubated in CIDB/luciferin for an additional 10 min, and then treated with vehicle or rechallenged with the same ligand (1.0 nM) and incubations continued for a final 60-min (ligand re-challenge phase); luminescence was monitored at 2 min-intervals during each phase of incubation.

[22] = target: T1, PTH1R-E35K; assay: Total binding of 125I-PTHrP(1-36), intact Gs22a cells
Protocol: as §11

[23] = target: T3, PTH1R-Y134S; assay: as above
Protocol: as §11

[24] = target: T4, PTH1R-H223R; assay: as above
Protocol: as §11

[25] = tested on: PTH1R-R485X
Protocol: as §11

[26] = target: T4, PTH1R-H223R; assay: Inverse agonist effect on basal cAMP, Gs22a cells; type: cell-based; conditions: 100 nM
Description: Minutes Minutes [PTHrP(7-36)] Log M
+Veh. +SW +Veh. +SW +Veh.+SW +Veh. +SW +SW
DMSO Dyngo+Veh. DMSO Dyngo+Veh. DMSO Dyngo+Veh. DMSO Dyngo+Veh. DMSO DMSO Dyngo+Veh.Dyngo+SW
Suppl ement al Fi gure 9.
Dat a f or PT H1R-H223R and
DMSO+PTHrP(7-36) Dyngo+Veh. Dyngo+PTHrP(7-36) DMSO+Veh. DMSO+SW106Dyngo+Veh. […] DMSO+SW106Dyngo+Veh. Dyngo+SW106 PTH1R-R485X DMSO+Veh. DMSO+SW106Dyngo+Veh. Dyngo+SW106 ##* DMSO+Veh. DMSO+SW106Dyngo+Veh. Dyngo+SW106 ##*** DMSO+Veh. DMSO+SW106Dyngo+Veh. Dyngo+SW106 PTH1R-H223R)

[27] = tested on: PTH1R-R485X; conditions: 100 nM
Protocol: Data are means ± SEM of three separate experiments, with triplicate wells in each.
Basal and ligand-stimulated cAMP signaling was assessed via the glosensor cAMP reporter in Gs22a cells transiently transfected to express either the WT or a mutant hPTH1R in white 96-well plates at room temperature. […] The plate was then placed into a PerkinElmer Envision plate reader and luminescence, as counts per second (cps), was measured at 2-min intervals for 15 min, during which time luciferin uptake occurred and luminescence reached a near steady-state baseline level. The plate was then removed from the plate reader, CIDB alone (vehicle) or containing a test ligand at varying concentrations was added, and luminescence was again measured at 2 min intervals for an additional 30–60 min.

[28] = tested on: PTH1R-R485X; conditions: PTH(1-34) 1 nM
Protocol: was added and moni t or i ng c ont i nued f or an addi t i onal 30 mi nut es .
shown in panel a. c) Cel l s wer e pr et r eat ed f or 15 mi nut es wi t h ei t her DMSO or Dy ngo4a ( 30 uM) , t hen
mi nut es ( agoni s t-was hout phas e) . T he AUCs of t he 90-mi nut e agoni s t-was hout r es pons es f or eac h
wi t h v ehi c l e dur i ng t he agoni s t-was hout phas e ( 100%) .

[29] = target: T2, PTH1R-WT; assay: Visualization of surface receptors after PTH(1-34)FAM pre-stimulation; type: cell-based; conditions: 30 nM, 30 min, RT
Protocol: (§12) To visualize receptors on the surface of non-stimulated cells, cells were fixed with 3.7% paraformaldehyde for 5 min at room temperature, incubated for 1 hour at room temperature with anti-HA mouse monoclonal primary antibody (anti-HA.11, BioLegend, Cat. No. 901513), rinsed, incubated for 1 h at room temperature with a goat-anti-mouse IgG secondary antibody poly-conjugated to HRP (poly-HRP-anti-mIgG; ThermoFisher Scientific, Cat. No. 32230), stained with Tyramide-Alexafluor-594 (Tyr^594; Tyramide SuperBoost Kit ThermoFisher Scientific, Cat. No. B4092), then mounted on a glass microscope slide in Vectashield containing DAPI and imaged using a Nikon Eclipse fluorescence microscope at 400X magnification.

[30] = tested on: PTH1R-R485X; conditions: 30 nM, 30 min, RT
Protocol: as §12

AVSEIQLnLHNLGrKH L ASVERnLQWLRKKLQDVHNF.NH2 [PTH(1-34)^TMR, tetramethyl rhodamine attached to the epsilon amino function of lysine-13]
co-localization of ligand clusters with β-arrestin2YFP, in words ([1]; 10 nM, 30 min): did not co-localize in clusters
co-localization of ligand clusters with β-arrestin2YFP, in words ([2]; 10 nM, 30 min): co-localized with β-arrestin2^YFP
co-localization of ligand clusters with β-arrestin2YFP, in words ([3]; 10 nM): co-localized with β-arrestin2^YFP
co-localization of ligand clusters with β-arrestin2YFP, in words ([4]; 10 nM, 30 min): co-localized with β-arrestin2^YFP
co-localization of ligand clusters with β-arrestin2YFP, in words [5]: co-localized with β-arrestin2^YFP

AVSEIQL L H D KGKSIQD L R R R FFL H H L IAEIH TAEI.N H2 [Ile^5-PTHrP(1-36)]
duration of cAMP response vs His5-PTHrP(1-36), in words [6]: more sustained cAMP signaling response
duration of cAMP response vs His5-PTHrP(1-36), in words [7]: more sustained cAMP signaling response
co-clustering of β-arrestin2YFP, in words ([1]; 10 nM unlabeled peptide): not
co-clustering of β-arrestin2YFP, in words ([2]; 10 nM unlabeled peptide): r obust co-clust ering
co-clustering of β-arrestin2YFP, in words ([4]; 10 nM unlabeled peptide): r obust co-clust ering
potency ratio vs PTHrP(1-36) [8]: ~10 fold
potency vs PTH(1-34), in words [8]: as potent as PTH(1-34)
potency ratio vs PTHrP(1-36) [9]: ~10 fold
potency vs PTH(1-34), in words [9]: as potent as PTH(1-34)

CC[C@H](C)[C@H](NC(=O)[C@H](CCC(=O)O)NC(=O)[C@H](CO)NC(=O)[C@@H](NC(=O)[C@@H](N)CO)C(C)C)C(=O)N[C@@H](CCC(N)=O)C(=O)N[C@@H](CC(C)C)C(=O)N[C@@H](CCSC)C(=O)N[C@@H](Cc1c[nH]cn1)C(=O)N[C@@H](CC(N)=O)C(=O)N[C@@H](CC(C)C)C(=O)NCC(=O)N[C@@H](CCCCN)C(=O)N[C@@H](Cc1c[nH]cn1)C(=O)N[C@@H](CC(C)C)C(=O)N[C@@H](CC(N)=O)C(=O)N[C@@H](CO)C(=O)N[C@@H](CCSC)C(=O)N[C@@H](CCC(=O)O)C(=O)N[C@@H](CCCNC(=N)N)C(=O)N[C@H](C(=O)N[C@@H](CCC(=O)O)C(=O)N[C@@H](Cc1c[nH]c2ccccc12)C(=O)N[C@@H](CC(C)C)C(=O)N[C@@H](CCCNC(=N)N)C(=O)N[C@@H](CCCCN)C(=O)N[C@@H](CCCCN)C(=O)N[C@@H](CC(C)C)C(=O)N[C@@H](CCC(N)=O)C(=O)N[C@@H](CC(=O)O)C(=O)N[C@H](C(=O)N[C@@H](Cc1c[nH]cn1)C(=O)N[C@@H](CC(N)=O)C(=O)N[C@@H](Cc1ccccc1)C(N)=O)C(C)C)C(C)C [PTH(1-34)]
Emax [10]: 100%
Emax ([11]; read-out: Emax of that attained on PTH1R-WT): ~80%
Emax ([11]; read-out: cAMP Emax): 81 ± 10%
Emax [12]: 106 ± 5%
Emax [13]: 96 ± 4%
Emax [14]: 48 ± 6%

AVSEH QL L H D KGrKSIQD L R R R FFL H H L IAEIH TAEI.N H 2 [PTHrP(1-36)^TMR, tetramethyl rhodamine attached to the epsilon amino function of lysine-13]
co-clustering of β-arrestin2YFP with ligand in endosomes, in words ([1]; 30 min): no co-clustering with β-arrestin2^YFP
co-clustering of β-arrestin2YFP with ligand in endosomes, in words ([2]; 30 min): no co-clustering with β-arrestin2^YFP
co-clustering of β-arrestin2YFP with ligand in endosomes, in words [3]: robust co-clustering of the ligand in endosomes with β-arrestin2^YFP
co-clustering of β-arrestin2YFP with ligand in endosomes, in words ([4]; 30 min): no co-clustering with β-arrestin2^YFP

AVAEIQLnLHQRAKWIQDARRRAFLHKLIAEIHTAEY.NH2 [125I-LA-PTH*, radioligand prepared by chloramine T oxidation with 125I-Na]
maximum specific binding (SB) of radioligand ([15]; % of maximum SB at PTHR1-WT): 89 ± 11%
fit maximum SB of radioligand ([15]; non-specific binding subtracted): 5,179±936 cpm
maximum specific binding (SB) of radioligand [16]: 114 ± 22%
maximum specific binding (SB) of radioligand [17]: 100 ± 0%
maximum specific binding (SB) of radioligand [18]: 93 ± 14%
maximum specific binding (SB) of radioligand [19]: 107 ± 14%

AVAEIQL MH QR AKWIQD AR R R AFL H KL IAEIH TAEI.OH [LA-PTH]
residual cAMP signaling at end of washout, in words [20]: elevated for all PTH1R variants
response upon ligand rechallenge, in words [21]: significantly blunted

AVSEH QL L H D KGKSIQD L R R R FFL H H L IAEIH TAEY.N H 2 [125I-PTHrP(1-36)]
reduction of total binding vs PTH1R-WT [22]: ~ 50%
reduction of total binding vs PTH1R-WT [23]: ~ 50%
total binding vs PTH1R-WT, in words [24]: comparable to that on PTH1R-WT
total binding vs PTH1R-WT, in words [25]: comparable to that on PTH1R-WT

LLHDLdWKSIQD L R R R FWL H H L IAEIH TAEY.N H 2 [dTrp^12-PTHrP(7-36), [Leu^11,dTrp^12,Trp^23,Tyr^36]-PTHrP(7–36)NH2]
effect on basal cAMP, in words [26]: rapid decreases in the intracellular cAMP levels
effect on basal cAMP, in words [27]: rapid decreases in the intracellular cAMP levels
inhibition of subsequently added PTH(1-34) cAMP signaling, in words [28]: dose-dependent inhibition of cAMP signaling

SVSEIQL MH N L GfKH L N SMER VEWL R KKL QD VH N F.OH [PTH(1-34)FAM]
ligand internalization, in words [29]: observed mainly in internalized clusters
ligand internalization, in words [30]: observed mainly in internalized clusters

AVSEIQL L H D KGrKSIQD L R R R FFL H H L IAEIH TAEI.N H 2 [Ile^5-PTHrP(1-36)^TMR, tetramethyl rhodamine attached to the epsilon amino function of lysine-13]
co-clustering of β-arrestin2YFP with ligand in endosomes, in words ([1]; 30 min): remained dispersed in the cytoplasm
co-clustering of β-arrestin2YFP with ligand in endosomes, in words ([2]; 30 min): robust co-clustering of β-arrestin2^YFP
co-clustering of β-arrestin2YFP with ligand in endosomes, in words [3]: robust co-clustering of β-arrestin2^YFP
co-clustering of β-arrestin2YFP with ligand in endosomes, in words ([4]; 30 min): robust co-clustering of β-arrestin2^YFP

From paper PMC10238420, “Altered Signaling and Desensitization Responses in PTH1R Mutants Associated with Eiken Syndrome” (Communications Biology, 2023)
